According to US8003649B2 (AstraZeneca AB, priority 2007, dated 2011):

target: T1, Androgen Receptor (AR) (Homo sapiens, UniProt P10275, T878A); assay: LNCaP Androgen Receptor Down-regulation Cell Assay (immunofluorescence end point); type: cell-based; conditions: LNCaP prostate carcinoma cells, compound incubation 20-22 hours, 50% reduction of the AR signal; read-out: Androgen Receptor Down-regulation Assay (a) IC50/μM
T1 construct: cell based immuno-fluorescence assay using the LNCaP prostate epithelial cell line; endogenous in cells; host or cells: LNCaP clone FGC (ATCC CRL-1740)
T1 sequence (P10275 1-920 T878A): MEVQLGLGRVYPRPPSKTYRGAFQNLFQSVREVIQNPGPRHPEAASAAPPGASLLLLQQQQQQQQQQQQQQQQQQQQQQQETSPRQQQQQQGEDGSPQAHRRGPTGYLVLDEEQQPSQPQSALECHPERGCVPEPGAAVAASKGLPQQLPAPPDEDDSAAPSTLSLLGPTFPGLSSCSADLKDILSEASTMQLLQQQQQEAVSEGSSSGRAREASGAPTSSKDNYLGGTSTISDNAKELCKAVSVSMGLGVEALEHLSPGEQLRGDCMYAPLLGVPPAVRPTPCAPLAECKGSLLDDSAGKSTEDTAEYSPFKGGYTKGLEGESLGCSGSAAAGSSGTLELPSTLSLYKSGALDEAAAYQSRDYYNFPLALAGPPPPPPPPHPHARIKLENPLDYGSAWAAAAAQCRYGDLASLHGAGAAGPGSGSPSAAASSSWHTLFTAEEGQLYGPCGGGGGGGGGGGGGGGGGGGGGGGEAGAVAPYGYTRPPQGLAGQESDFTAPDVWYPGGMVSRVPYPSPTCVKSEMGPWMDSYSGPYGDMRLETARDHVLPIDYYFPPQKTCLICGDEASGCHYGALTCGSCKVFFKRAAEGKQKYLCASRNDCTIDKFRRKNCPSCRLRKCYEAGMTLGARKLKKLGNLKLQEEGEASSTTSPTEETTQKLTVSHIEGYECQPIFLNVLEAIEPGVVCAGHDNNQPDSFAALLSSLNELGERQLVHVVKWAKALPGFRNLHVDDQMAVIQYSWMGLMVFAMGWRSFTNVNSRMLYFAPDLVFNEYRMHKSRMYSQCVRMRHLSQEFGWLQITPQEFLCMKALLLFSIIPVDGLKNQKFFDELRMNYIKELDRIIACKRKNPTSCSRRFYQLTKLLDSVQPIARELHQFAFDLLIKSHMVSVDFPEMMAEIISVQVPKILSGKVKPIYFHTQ
Procedure, shortened: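 AR loss reported as IC50 from curve fits of fluorescence dose-response data, with AR immunostained and read by laser-scanning cytometry. Compound exposure was 20-22 h at 37° C in LNCaP cells grown in 5% charcoal-stripped FBS and plated overnight beforehand.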

Question: How did the DC50 turn out when `C[C@H]1CN(Cc2ccncc2)CCN1c1ccc2nnc(C(F)(F)F)n2n1` [Example 358, 6-[(2S)-2-methyl-4-(pyridin-4-ylmethyl)piperazin-1-yl]-3-(trifluoromethyl)[1,2,4]triazolo[4,3-b]pyridazine] was run?
Answer: The DC50 was 6.7 µM.

Question: `C[C@H]1CN(Cc2ccccn2)CCN1c1ccc2nnc(C(F)(F)F)n2n1` [Example 359] was tested. Which DC50 did it give?
Answer: Its DC50 is 2.6 µM.

Question: For `C[C@H]1CN(Cc2cccc(Br)n2)CCN1c1ccc2nnc(C(F)(F)F)n2n1` [Example 360], which DC50 is on record?
Answer: The DC50 was 1 µM.

Question: With `C[C@H]1CN(Cc2ccc(C(F)(F)F)nc2)CCN1c1ccc2nnc(C(F)(F)F)n2n1` [Example 361] as the compound, how does the DC50 read?
Answer: The DC50 was 4.7 µM.

Question: How did the DC50 turn out when `C[C@H]1CN(Cc2cncc(F)c2)CCN1c1ccc2nnc(C(F)(F)F)n2n1` [Example 366] was run?
Answer: Its DC50 is > 33 µM.

Question: `FC(F)(F)c1nnc2ccc(N3CCN(Cc4cccc(Br)n4)CC3)nn12` [Example 367, 6-[4-[(6-bromopyridin-2-yl)methyl]piperazin-1-yl]-3-(trifluoromethyl)[1,2,4]triazolo[4,3-b]pyridazine] was tested. Which DC50 did it give?
Answer: Its DC50 is 4.1 µM.

Question: How did the DC50 turn out when `FC(F)(F)c1nnc2ccc(N3CCN(Cc4cccnc4Cl)CC3)nn12` [Example 369] was run?
Answer: Its DC50 is 8.7 µM.

Question: `FC(F)(F)c1nnc2ccc(N3CCN(Cc4ccc(Br)nc4)CC3)nn12` [Example 374, 6-[4-[(6-bromopyridin-3-yl)methyl]piperazin-1-yl]-3-(trifluoromethyl)[1,2,4]triazolo[4,3-b]pyridazine] was tested. Which DC50 did it give?
Answer: The DC50 was 0.93 µM.

Question: Which DC50 does the source give for `FC(F)(F)c1nnc2ccc(N3CCN(Cc4cccnc4Br)CC3)nn12` [Example 376] here?
Answer: The DC50 was 3 µM.

Question: How did the DC50 turn out when `FC(F)(F)c1nnc2ccc(N3CCN(Cc4cnccc4Br)CC3)nn12` [Example 377] was run?
Answer: The DC50 was 5.9 µM.

Question: For `N#Cc1cc(F)c(CN2CCN(c3ccc4nnc(C(F)(F)F)n4n3)CC2)c(F)c1` [Example 380], which DC50 is on record?
Answer: The DC50 was 4.2 µM.

Question: With `Fc1cccc(CN2CCN(c3ccc4nnc(C(F)(F)F)n4n3)CC2)c1F` [Example 381] as the compound, how does the DC50 read?
Answer: Its DC50 is 2.1 µM.

Question: For `Fc1ccc(CN2CCN(c3ccc4nnc(C(F)(F)F)n4n3)CC2)c(F)c1` [Example 382], which DC50 is on record?
Answer: The DC50 was 1.8 µM.

Question: For `Fc1cccc(F)c1CN1CCN(c2ccc3nnc(C(F)(F)F)n3n2)CC1` [Example 384], which DC50 is on record?
Answer: The DC50 was 2.9 µM.

Question: `COc1ccc(CN2CCN(c3ccc4nnc(C(F)(F)F)n4n3)CC2)c(F)c1` [Example 385] was tested. Which DC50 did it give?
Answer: Its DC50 is 2.1 µM.

Question: `Fc1ccc(F)c(CN2CCN(c3ccc4nnc(C(F)(F)F)n4n3)CC2)c1` [Example 386] was tested. Which DC50 did it give?
Answer: Its DC50 is 2.4 µM.

Question: How did the DC50 turn out when `COc1ccc(CN2CCN(c3ccc4nnc(C(F)(F)F)n4n3)CC2)cc1F` [Example 388] was run?
Answer: Its DC50 is 1.6 µM.

Question: How did the DC50 turn out when `N#Cc1ccc(CN2CCN(c3ccc4nnc(C(F)(F)F)n4n3)CC2)c(F)c1` [Example 389] was run?
Answer: Its DC50 is 1.5 µM.

Question: How did the DC50 turn out when `COc1ccc(F)c(CN2CCN(c3ccc4nnc(C(F)(F)F)n4n3)CC2)c1` [Example 390] was run?
Answer: Its DC50 is 1.7 µM.

Question: With `Fc1cc(F)cc(CN2CCN(c3ccc4nnc(C(F)(F)F)n4n3)CC2)c1` [Example 391] as the compound, how does the DC50 read?
Answer: The DC50 was 2.7 µM.

Question: Which DC50 does the source give for `O=S(=O)(c1ccc2ccccc2c1)N1CCN(c2ccc3nnc(C(F)(F)F)n3n2)CC1` [Example 394, 6-[4-(naphthalen-2-ylsulfonyl)piperazin-1-yl]-3-(trifluoromethyl)[1,2,4]triazolo[4,3-b]pyridazine] here?
Answer: The DC50 was 5.6 µM.

Question: With `COc1cccc(S(=O)(=O)N2CCN(c3ccc4nnc(C(F)(F)F)n4n3)CC2)c1` [Example 396] as the compound, how does the DC50 read?
Answer: The DC50 was 1.8 µM.

Question: Which DC50 does the source give for `COc1ccccc1S(=O)(=O)N1CCN(c2ccc3nnc(C(F)(F)F)n3n2)CC1` [Example 397] here?
Answer: The DC50 was 3.9 µM.

Question: For `COc1ccc(S(=O)(=O)N2CCN(c3ccc4nnc(C(F)(F)F)n4n3)CC2)cc1` [Example 398], which DC50 is on record?
Answer: The DC50 was 1.9 µM.

Question: `COc1ccc(OC)c(S(=O)(=O)N2CCN(c3ccc4nnc(C(F)(F)F)n4n3)CC2)c1` [Example 399] was tested. Which DC50 did it give?
Answer: The DC50 was 3.7 µM.

Question: For `N#Cc1ccccc1S(=O)(=O)N1CCN(c2ccc3nnc(C(F)(F)F)n3n2)CC1` [Example 403], which DC50 is on record?
Answer: Its DC50 is 4.8 µM.

Question: `COc1ccc(S(=O)(=O)N2CCN(c3ccc4nnc(C(F)(F)F)n4n3)CC2)c(OC)c1` [Example 404] was tested. Which DC50 did it give?
Answer: The DC50 was 2.7 µM.

Question: How did the DC50 turn out when `O=S(=O)(c1ccc(F)cc1)N1CCN(c2ccc3nnc(C(F)(F)F)n3n2)CC1` [Example 405] was run?
Answer: The DC50 was 3 µM.

Question: With `CN(Cc1cccnc1)C1CCN(c2ccc3nnc(C(F)(F)F)n3n2)CC1` [Example 406, N-methyl-N-(pyridin-3-ylmethyl)-1-[3-(trifluoromethyl)[1,2,4]triazolo[4,3-b]pyridazin-6-yl]piperidin-4-amine] as the compound, how does the DC50 read?
Answer: The DC50 was 6.3 µM.

Question: Which DC50 does the source give for `CN(Cc1ccc(F)cc1)C1CCN(c2ccc3nnc(C(F)(F)F)n3n2)CC1` [Example 407] here?
Answer: The DC50 was 5.7 µM.

Question: For `CN(Cc1ccc(F)c(F)c1)C1CCN(c2ccc3nnc(C(F)(F)F)n3n2)CC1` [Example 408], which DC50 is on record?
Answer: The DC50 was 1.7 µM.

Question: Which DC50 does the source give for `CN(Cc1ccc(C#N)cc1)C1CCN(c2ccc3nnc(C(F)(F)F)n3n2)CC1` [Example 409] here?
Answer: The DC50 was 3.9 µM.

Question: Which DC50 does the source give for `CN(Cc1cc(F)cc(F)c1)C1CCN(c2ccc3nnc(C(F)(F)F)n3n2)CC1` [Example 410] here?
Answer: Its DC50 is 2.1 µM.

Question: Which DC50 does the source give for `CN(Cc1ccc(F)c(C#N)c1)C1CCN(c2ccc3nnc(C(F)(F)F)n3n2)CC1` [Example 411] here?
Answer: Its DC50 is 2.2 µM.

Question: For `CN(CCO)C(=O)c1ccc(OC2CCN(c3ccc4nnc(C(F)(F)F)n4n3)CC2)cc1` [Example 412, N-(2-hydroxyethyl)-N-methyl-4-[[1-[3-(trifluoromethyl)-[1,2,4]triazolo[4,3-b]pyridazin-6-yl]piperidin-4-yl]oxy]benzamide], which DC50 is on record?
Answer: The DC50 was 9.1 µM.

Question: For `O=C(NCCN1CCCC1)c1ccc(OC2CCN(c3ccc4nnc(C(F)(F)F)n4n3)CC2)cc1` [Example 413], which DC50 is on record?
Answer: The DC50 was 1.9 µM.

Question: How did the DC50 turn out when `CN1CCN(C(=O)c2ccc(OC3CCN(c4ccc5nnc(C(F)(F)F)n5n4)CC3)cc2)CC1` [Example 414] was run?
Answer: Its DC50 is > 10 µM.

Question: For `COCCNC(=O)c1ccc(OC2CCN(c3ccc4nnc(C(F)(F)F)n4n3)CC2)cc1` [Example 416], which DC50 is on record?
Answer: Its DC50 is 2.7 µM.

Question: Which DC50 does the source give for `CN(C)C(=O)c1ccc(OC2CCN(c3ccc4nnc(C(F)(F)F)n4n3)CC2)cc1` [Example 417] here?
Answer: The DC50 was 4.6 µM.

Question: How did the DC50 turn out when `O=C(c1ccc(OC2CCN(c3ccc4nnc(C(F)(F)F)n4n3)CC2)cc1)N1CC[C@@H](O)C1` [Example 418] was run?
Answer: The DC50 was > 14 µM.

Question: `O=C(c1ccc(OC2CCN(c3ccc4nnc(C(F)(F)F)n4n3)CC2)cc1)N1CCOCC1` [Example 420] was tested. Which DC50 did it give?
Answer: The DC50 was 5.9 µM.

Question: Which DC50 does the source give for `O=C(NCCN1CCOCC1)c1ccc(OC2CCN(c3ccc4nnc(C(F)(F)F)n4n3)CC2)cc1` [Example 424] here?
Answer: Its DC50 is 2.2 µM.

Question: Which DC50 does the source give for `COCCN(C)C(=O)c1ccc(OC2CCN(c3ccc4nnc(C(F)(F)F)n4n3)CC2)cc1` [Example 425] here?
Answer: The DC50 was 3.6 µM.

Question: With `CN1CCC(NC(=O)c2ccc(OC3CCN(c4ccc5nnc(C(F)(F)F)n5n4)CC3)cc2)CC1` [Example 427] as the compound, how does the DC50 read?
Answer: The DC50 was 4.3 µM.

Question: For `CN(C)CCNC(=O)c1ccc(OC2CCN(c3ccc4nnc(C(F)(F)F)n4n3)CC2)cc1` [Example 429], which DC50 is on record?
Answer: The DC50 was 2.6 µM.

Question: Which DC50 does the source give for `CN(C)CCCOc1ccc(OC2CCN(c3ccc4nnc(C(F)(F)F)n4n3)CC2)cc1` [Example 430, N,N-dimethyl-3-[4-[[1-[3-(trifluoromethyl)-[1,2,4]triazolo[4,3-b]pyridazin-6-yl]piperidin-4-yl]oxy]phenoxy]propan-1-amine] here?
Answer: Its DC50 is 1.7 µM.

Question: How did the DC50 turn out when `FC(F)(F)c1nnc2ccc(N3CCC(Oc4ccc(OCCN5CCCC5)cc4)CC3)nn12` [Example 431] was run?
Answer: Its DC50 is 1.5 µM.

Question: For `FC(F)(F)c1nnc2ccc(N3CCC(Oc4ccc(OCCCN5CCNCC5)cc4)CC3)nn12` [Example 433], which DC50 is on record?
Answer: The DC50 was 0.9 µM.

Question: Which DC50 does the source give for `CN(C)CCOc1ccc(OC2CCN(c3ccc4nnc(C(F)(F)F)n4n3)CC2)cc1` [Example 435] here?
Answer: The DC50 was 0.98 µM.

Question: Which DC50 does the source give for `CN1CCC(Oc2ccc(OC3CCN(c4ccc5nnc(C(F)(F)F)n5n4)CC3)cc2)CC1` [Example 436] here?
Answer: Its DC50 is 0.75 µM.
